Here are results for four molecules from patent publication US12384792B2, “Solid forms of isoquinolinones, and process of making, composition comprising, and methods of using the same” (Twelve Therapeutics, Inc., priority 2015, dated 2025).

The subject of series [1] is PI3 kinase (e.g., PI3K-delta). To be noted: smoking mice in vivo; cited from earlier work.
In series [2] the test system is PI3 kinase (e.g., PI3K-delta). To be noted: in vitro; cited from earlier work.
Series [3] concerns non-small-cell lung cancer, melanoma, and renal-cell cancer. To be noted: clinical trial with a total of 296 patients; cited from earlier work.
For a further series, the system named is post-irradiated tumors. Particulars: cited from earlier work.
Series [4] in a line: Kinetic solubility after 30 min in water and in 0.1M HCl. Particulars: thermodynamic from solid, free base, 30 min, read-out: 30 min Kinetic solubility (pH), free base. The series is classed as physicochemical. The source says: See tables below for the summarized results.
Series [5] in a line: Solubility of Compound 1 in acetonitrile/water during controlled crystallization. The series is classed as physicochemical. As to the method: An appropriate amount of acetonitrile/water were added to bring the solution to 80/20 v/v acetonitrile/water at 20 L/kg of Compound 1. The slurry was agitated and heated to 75° C. until all the Compound 1 was dissolved. The clear solution was polished filtered with a Zapcap filter (0.45 μm). The solution was put back into the reactor and cool down to 65° C.
The mixture was held under agitation at 22° C. for 2 hrs after the end of water addition.
20 L/kg of 80/20 v/v acetonitrile/water was added to Compound 1 solid charged into a reactor. The slurry was agitated and heated to 75° C. until all Compound 1 was dissolved. The clear solution was polish filtered with a Zapcap filter (0.45 μm). The solution was put back into the reactor and cooled down to 65° C.

In brackets after ≈: the same amount, converted by molar mass. Where two headings read alike, the source gives them in different places.

`Cn1c(=O)c2[nH]cnc2n(C)c1=O` [Theophylline, theophylline]: the “histone deacetylase-2 and corticosteroid sensitivity” value in series [1] and in series [2] was “increases” in each case.

Turning to “nivolumab: fully human IgG4 monoclonal antibody which specifically blocks PD1”, in series [3], the “response in non-small-cell lung cancer, melanoma, and renal-cell cancer” value is recorded as “complete or partial responses”.

With `c1cc(CN2CCCNCCNCCCNCC2)ccc1CN1CCCNCCNCCCNCC1` [AMD3100], the “tumor vasculogenesis and tumor regrowth” value with post-irradiated tumors is listed as “blocked”.

One may read the kinetic solubility as solubility judged after dilution from a stock solution rather than from solid. One may read the solubility as how much of the substance goes into solution per volume. For `C[C@H](NC(=O)c1c(N)nn2cccnc12)c1cc2cccc(C#Cc3cnn(C)c3)c2c(=O)n1-c1ccccc1` [Compound 1, (S)-2-amino-N-(1-(8-((1-methyl-1H-pyrazol-4-yl)ethynyl)-1-oxo-2-phenyl-1,2-dihydroisoquinolin-3-yl)ethyl)pyrazolo[1,5-a]pyrimidine-3-carboxamide], the kinetic solubility at 30 min in series [4] (0.1M HCl, pH 1.5, simulated gastric fluid, in 0.1M HCl, pH 1.5 and 1.3) is 10 µg/mL (≈ 0.0189 mM); in series [4] (water, pH 7.1, water, in water (footnote *), pH 7.1 and 6.8), 10 µg/mL (≈ 0.0189 mM). The solubility is ~3000 µg/mL (≈ 5.68 mM) in series [5] (aqueous with cosolvent or surfactant or cyclodextrin, 40/60 v/v acetonitrile/water, 22° C.); ~18000 µg/mL (≈ 34.1 mM) in series [5] (organic solvent or mixture, 80/20 v/v acetonitrile/water, 22° C.); ~50000 µg/mL (≈ 94.6 mM) in series [5] (organic solvent or mixture, 80/20 v/v acetonitrile/water, 65° C.).
